The values that follow come from US20260098031A1, “MONOCYCLIC COMPOUND HAVING GLP-1 RECEPTOR AGONIST ACTIVITY” (Shionogi & Co., Ltd., priority 2022, published 2026).

This test deals with T1, Human GLP-1 receptor (Homo sapiens, UniProt P43220).
T1 construct: expressed in transfected cells; host or cells: CHO-K1
Briefly: Measurement of GLP-1 receptor agonist activity (cAMP assay in hGLP-1R/CHO-K1 cells). In kind it is cell-based. The note with it: for Emax: CHO-K1, maximum effect, cAMP with 2 nM human GLP-1 (7-36) = 100%, DMSO only = 0%; for EC50: cAMP increase in hGLP-1R/CHO-K1 cells, 1 hour at 37° C., with Forskolin. The procedure: Human GLP-1 receptor stably expressing cells (hGLP-1R/CHO-K1 cells) are cultured in an α-MEM medium (Sigma) containing 10% FBS (Hyclone), 2% GlutaMAX (Gibco), 1% G418 (Nacalai Tesque), and 1% Penicillin-Streptomycin Mixed Solution (Sigma) at 37° C. under 5% CO2 conditions, and recovered by treating a 10 fold diluted 5.0 g/1-trypsin/5.3 mmol/1-EDTA solution (Nacalai Tesque) and cryopreserved.
A DMSO solution containing the compound of the present invention or human GLP-1 (7-36) (Phoenix Pharmaceuticals) is dispensed into a 384-well microplate (Greiner) at 62.5 nL/well, and in addition, 400 μM Forskolin (Nacalai Tesque) is dispensed therein at 7.5 nL/well. Subsequently, the frozen GLP-1 R/CHO-K1 cells are thawed in a thermostatic bath at 37° C., suspended in HBSS buffer (GIBCO) containing 0.1% BSA (Sigma), 20 mM HEPES, 0.1 mM IBMX (Sigma), and 0.2 mM RO20-1724 (Calbiochem) at 2×10^4 cells/mL, and the cell suspension is added at 6 μL/well. The solution was incubated at 37° C. for 1 hour and intracellular cAMP concentration is measured using cAMP Gs dynamic kit (Cisbio) according to the protocol attached to the product. Specifically, a cAMP-d2/Anti-cAMP-Cryptate (1/1) mixture solution is added in a total amount of 6 μL/well, and is incubated at room temperature for 1 hour, and then, time-resolved fluorescence is measured using PHERAstar (BMG Labtech).
Assuming that the cAMP concentration when human GLP-1 (7-36) is dispensed to a final concentration of 2 nM is 100% and the cAMP concentration when only DMSO is dispensed is 0%, the 50% effective concentration (EC50) and the maximum effect (Emax) of the compound of the present invention are calculated using an increase in the cAMP concentration as an index, using TIBCO Spotfire (TIBCO Software). The dilution concentration or the dilution solvent are changed as necessary.
The compounds of the present invention were tested essentially as described above.

T1 sequence (P43220 24-463): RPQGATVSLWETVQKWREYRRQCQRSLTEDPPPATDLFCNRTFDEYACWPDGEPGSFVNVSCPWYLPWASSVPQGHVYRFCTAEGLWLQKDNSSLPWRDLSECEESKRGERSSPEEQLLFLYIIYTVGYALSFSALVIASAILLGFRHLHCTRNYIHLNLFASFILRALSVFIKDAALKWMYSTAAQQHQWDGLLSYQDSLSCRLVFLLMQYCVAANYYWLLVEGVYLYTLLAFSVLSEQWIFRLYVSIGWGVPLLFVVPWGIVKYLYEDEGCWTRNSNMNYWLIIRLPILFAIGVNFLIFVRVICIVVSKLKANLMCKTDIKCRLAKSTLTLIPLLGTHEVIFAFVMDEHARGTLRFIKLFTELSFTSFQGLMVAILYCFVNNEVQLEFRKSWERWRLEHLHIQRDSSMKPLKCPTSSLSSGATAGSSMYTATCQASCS

`O=C(O)c1ccc2nc(CNCc3ccc(C(F)(F)F)c(OCc4ccc(Cl)cc4F)n3)n(C[C@@H]3CCO3)c2c1` [Compound I-006] yielded an Emax of 55% and a half-maximal effective concentration (EC50) of 2830 nM.

Compound `CC(NCc1nc2ccc(C(=O)O)cc2n1C[C@@H]1CCO1)c1nc(OCc2ccc(Cl)cc2F)c(C(F)(F)F)cc1F` (mixture of isomers) [Compound I-003] returned an Emax of 65.3% and a concentration giving a half-maximal response (EC50) of 354 nM.

The compound `CC(c1ccc(C(F)(F)F)c(OCc2ccc(Cl)cc2F)n1)N(C)Cc1nc2ccc(C(=O)O)cc2n1C[C@@H]1CCO1` (stereo partly shown) [Compound I-005] had an Emax of 74.7% and an EC50 of 86 nM.

The compound `CC(NCc1nc2ccc(C(=O)O)cc2n1C[C@@H]1CCO1)c1ccc(C(F)(F)F)c(OCc2ccc(Cl)cc2F)n1` (mixture of isomers) [Compound I-004] returned an Emax of 60% and an EC50 of 1060 nM.

`CN(CCc1cnc(OCc2ccc(Cl)cc2F)c(C(F)(F)F)c1)Cc1nc2ccc(C(=O)O)cc2n1C[C@@H]1CCO1` [Compound I-002] gave an Emax of 52% and an EC50 of 2300 nM.

By Emax is commonly meant the size of the effect at its maximum, as opposed to the concentration needed. As usually defined, the EC50 is the concentration needed to bring the measured effect to its halfway point. High values mean weaker potency, low ones greater potency.
